From patent US12692233B2, “Anthelmintic compounds comprising a pyridine structure” (Intervet Inc., priority 2020, dated 2026) come the findings set out here.

Test [1] relates to Ascaridia galli. The test is described as follows: In vitro assay Ascaridia galli larval stage 3. It counts as cell-based. Conditions: larval stage 3, 20 larvae per well, microscopic examination, read-out: MEC (minimum effective concentration) against Ascaridia galli L3. An excerpt: (§1) […] galli (intestinal roundworm of chicken), larval stage 3 (“L3”); and Oesophagostumum dentatum (nodular worm of swine), larval stages 3 and 4 (respectively “L3” and “L4”) where suspended in a nutrient medium and distributed to 96 well plates with 20 larvae per well. The wells were spiked DMSO solutions of the compounds with declining concentration.

Test [2] has as its system Dirofilaria immitis. The test is described as follows: In vitro assay Dirofilaria immitis L1 (microfilaria), motility. The test is classed as cell-based. Conditions: 72 h, 3 days incubation, reduction in motility vs DMSO. As to the method: Approximately 500 D. immitis microfilaria were added to a microtiter plate containing a nutrient medium and the test compound in DMSO at varying concentrations. After incubation for 3 days, activity was evaluated as reduction in motility as compared to DMSO as negative control. Compounds were tested in duplicates. Based on the concentration response curves EC50 values were calculated.

Test [3] deals with Acanthocheilonema viteae. The test is described as follows: In vitro assay Acanthocheilonema viteae L1 (microfilaria), motility. It counts as cell-based. Conditions: 72 h, 3 days incubation, reduction in motility vs DMSO. As to the method:
Approximately 500 A. viteae microfilaria were added to a microtiter plate containing a nutrient medium and the test compound in DMSO at varying concentrations. After incubation for 3 days, activity was evaluated as reduction in motility as compared to DMSO as negative control. Compounds were tested in duplicates. Based on the concentration response curves EC50 values were calculated.

In test [4] the target is T1, human Maxi K channel (BK channel) (Homo sapiens, UniProt Q12791).
T1 construct: expressed in transfected cells; host or cells: CHO K1
T1 sequence (Q12791 1-1178 isoform Q12791-5): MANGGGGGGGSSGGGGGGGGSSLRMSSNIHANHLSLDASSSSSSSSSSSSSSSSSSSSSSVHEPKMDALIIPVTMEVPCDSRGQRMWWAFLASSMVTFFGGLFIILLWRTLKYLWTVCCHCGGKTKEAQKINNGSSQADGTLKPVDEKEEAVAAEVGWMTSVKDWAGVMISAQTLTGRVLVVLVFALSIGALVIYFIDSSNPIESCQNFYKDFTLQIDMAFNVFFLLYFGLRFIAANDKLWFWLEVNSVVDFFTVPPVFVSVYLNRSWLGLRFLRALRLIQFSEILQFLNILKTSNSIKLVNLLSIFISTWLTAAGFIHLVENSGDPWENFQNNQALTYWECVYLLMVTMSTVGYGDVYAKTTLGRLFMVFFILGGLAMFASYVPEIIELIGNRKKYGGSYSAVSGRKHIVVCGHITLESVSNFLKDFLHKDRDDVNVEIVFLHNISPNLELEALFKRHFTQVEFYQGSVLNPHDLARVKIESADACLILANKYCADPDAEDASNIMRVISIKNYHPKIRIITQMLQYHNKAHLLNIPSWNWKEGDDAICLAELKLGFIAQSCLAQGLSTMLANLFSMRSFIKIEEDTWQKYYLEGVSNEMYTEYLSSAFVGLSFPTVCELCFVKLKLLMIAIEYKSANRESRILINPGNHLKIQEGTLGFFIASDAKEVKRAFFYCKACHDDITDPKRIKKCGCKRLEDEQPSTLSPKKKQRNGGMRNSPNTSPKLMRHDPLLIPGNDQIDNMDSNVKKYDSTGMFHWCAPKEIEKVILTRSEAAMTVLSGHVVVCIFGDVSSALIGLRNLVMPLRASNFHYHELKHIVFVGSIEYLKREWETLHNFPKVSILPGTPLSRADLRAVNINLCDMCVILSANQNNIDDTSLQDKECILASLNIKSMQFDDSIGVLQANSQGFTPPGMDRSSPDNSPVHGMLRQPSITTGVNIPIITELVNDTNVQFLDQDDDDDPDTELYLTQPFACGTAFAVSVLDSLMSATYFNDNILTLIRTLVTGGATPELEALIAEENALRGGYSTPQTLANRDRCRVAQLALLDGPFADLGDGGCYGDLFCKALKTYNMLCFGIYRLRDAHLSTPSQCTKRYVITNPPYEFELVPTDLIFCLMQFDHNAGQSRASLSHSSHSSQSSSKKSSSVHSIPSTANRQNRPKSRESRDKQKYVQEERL
T1 sequence (Q16558 whole entry partner): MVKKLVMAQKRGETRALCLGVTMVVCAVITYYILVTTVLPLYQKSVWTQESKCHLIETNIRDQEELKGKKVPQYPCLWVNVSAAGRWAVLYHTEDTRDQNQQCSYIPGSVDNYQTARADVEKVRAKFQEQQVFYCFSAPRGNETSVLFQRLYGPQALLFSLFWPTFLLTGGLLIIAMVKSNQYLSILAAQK
The test is described as follows: Agonistic activity at the human Maxi K channel (BK channel), FLIPR membrane potential in CHO K1 cells. It counts as cell-based. Conditions: CHO K1 cells stably transfected with KCNMA1 and beta1 (KCNMB1) subunits, membrane potential dye. An excerpt:
A CHO K1 cell line was stably transfected with the KCNMA1 (KCa1.1, U11058) and beta1 (KCNMB1) subunits of the human Maxi K channel (Ponte et al, Molecular Pharmacology 2012, 81(4), 567-577).
The complete measurement takes 150 s.

Test [5] relates to Oesophagostumum dentatum. The test is described as follows: In vitro assay Oesophagostumum dentatum larval stage 4. The test is classed as cell-based. Conditions: larval stage 4, 20 larvae per well, microscopic examination; read-out: MEC (minimum effective concentration) against Oesophagostumum dentatum L4.
Description: as §1

For test [6], the system named is Haemonchus contortus. The test is described as follows: In vitro assay Haemonchus contortus, motility of exsheathed L3 larvae. The test is classed as cell-based. Conditions: 168 h, 7 days incubation, motility reduced by 50% with respect to positive control ivermectin, read-out: ED50 against Haemonchus contortus. As to the method: Solutions of compounds with declining concentrations in DMSO were prepared, diluted with nutrient medium and distributed to 96 well microtiterplates. […]3 larvae of Haemonchus contortus were incubated for 20 min at 37° C. in a water bath, separated by centrifugation and added to the wells with 300 Larvae/well. After incubation for 7 days motility was assessed by automated microscopy. Ivermectin was used as positive control, DMSO as negative control and ED50 values were calculated which represent the concentration for an individual compound that reduces motility by 50% with respect to the […].

Test [7] has as its target C. elegans Slo-1a (Caenorhabditis elegans, UniProt Q95V25). The test is described as follows: Agonistic activity at C. elegans Slo-1a, FLIPR membrane potential in CHO K1 cells. Conditions: EC50 agonistic activity at C. elegans Slo-1a, CHO K1 cells stably transfected with slo-1a, membrane potential dye.
Description: A CHO K1 cell line stably transfected with the Caenorhabditis elegans slo-1a (accession no Y51A2D.19a) was established. Cells were seeded in microtiter plates (black 384-well MTP, clear bottom) in a concentration of 10,000 cells/well in 25 μl medium and cultured for 20 to 24 hours at 37° C. and 5% CO2. After incubation, 25 μl of FMP-dye Blue-Tyrode's was added to each well and incubated at room temperature for 30 min. Ten minutes after addition of 12.5 μl compound solution, the plates are transferred to the FLIPR for measurement.
For the membrane potential measurements, the plates were placed in the FLIPR Penta (Molecular Devices). The baseline measurement of the fluorescence was stared for 20 sec (Exc. 510-545 nm, Emm. 565-625 nm). Potential channel opening measurement was started by addition of 25 μl of KCl-Tyrode (final assay concentration of the KCl-Tyrode: 70 mM KCl, 2 mM CaCl2, 1 mM MgCl2, 0.8 mM NaH2PO4, 5 mM Glucose, 28 mM Hepes, pH 7.4, including the voltage sensitive dye). The complete measurement takes 150 s.
EC50 values were determined in triplicate utilizing compound dilution series. The data were determined at least in two independent tests. The data were proceeded by using the ActivityBase XE Runner software (IDBS) for curve fitting and calculation of the half-maximal effective concentration.
In test [8] the test system is Oesophagostumum dentatum. In words: In vitro assay Oesophagostumum dentatum larval stage 3. The test is classed as cell-based. Conditions: larval stage 3, 20 larvae per well, microscopic examination; read-out: MEC (minimum effective concentration) against Oesophagostumum dentatum L3.
Description: as §1

Sequence of C. elegans Slo-1a (Q95V25 whole entry): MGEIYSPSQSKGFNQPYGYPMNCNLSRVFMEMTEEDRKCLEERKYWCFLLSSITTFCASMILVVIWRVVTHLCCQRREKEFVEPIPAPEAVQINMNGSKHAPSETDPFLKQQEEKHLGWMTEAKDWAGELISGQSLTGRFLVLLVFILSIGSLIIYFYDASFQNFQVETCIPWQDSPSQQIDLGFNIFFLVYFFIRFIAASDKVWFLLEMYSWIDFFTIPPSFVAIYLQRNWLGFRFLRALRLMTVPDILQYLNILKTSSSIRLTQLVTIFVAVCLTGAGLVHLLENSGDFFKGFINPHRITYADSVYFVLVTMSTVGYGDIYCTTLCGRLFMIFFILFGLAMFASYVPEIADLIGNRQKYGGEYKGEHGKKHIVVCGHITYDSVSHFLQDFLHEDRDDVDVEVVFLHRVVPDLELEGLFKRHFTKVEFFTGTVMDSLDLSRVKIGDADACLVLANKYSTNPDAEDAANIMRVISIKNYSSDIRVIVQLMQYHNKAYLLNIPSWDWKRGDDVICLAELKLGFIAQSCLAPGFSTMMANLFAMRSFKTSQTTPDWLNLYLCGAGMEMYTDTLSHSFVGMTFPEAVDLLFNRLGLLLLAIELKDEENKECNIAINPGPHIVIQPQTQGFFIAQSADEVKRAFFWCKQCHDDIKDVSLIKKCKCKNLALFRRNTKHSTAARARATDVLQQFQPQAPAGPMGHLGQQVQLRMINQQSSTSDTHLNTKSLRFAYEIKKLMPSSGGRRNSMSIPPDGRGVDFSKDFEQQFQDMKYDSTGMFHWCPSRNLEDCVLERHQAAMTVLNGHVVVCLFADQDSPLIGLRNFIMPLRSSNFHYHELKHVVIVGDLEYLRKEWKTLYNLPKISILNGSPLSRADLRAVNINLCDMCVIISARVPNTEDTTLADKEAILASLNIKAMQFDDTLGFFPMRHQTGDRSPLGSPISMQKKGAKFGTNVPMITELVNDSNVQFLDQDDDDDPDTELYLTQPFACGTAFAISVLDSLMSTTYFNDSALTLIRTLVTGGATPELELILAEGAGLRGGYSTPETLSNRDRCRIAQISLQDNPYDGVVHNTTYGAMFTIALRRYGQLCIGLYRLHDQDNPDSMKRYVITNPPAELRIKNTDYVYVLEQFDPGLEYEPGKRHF

Take `COc1cc(Oc2cccc(Cl)c2Cl)ncc1C(=O)N[C@H]1CCOc2ccccc21` [Compound 95]: in test [1], the minimal effective concentration is at most 50 µM. Moreover, the EC50 in test [2] is below 10 µM; in test [3], below 10 µM; in test [4] it was above 30 µM.
Turning to `COc1cc(Sc2cc(Cl)cc(Cl)c2)ncc1C(=O)N[C@H]1CCCc2ccccc21` [Compound 82], in test [5], the minimal effective concentration is at most 50 µM. For the same compound, the EC50 in test [6] was below 50 µM; in test [2] it was below 10 µM; in test [3], below 10 µM; in test [4] it was above 30 µM; in test [7] it was below 10 µM.
Consider `CN(C)c1cc(Oc2cccc(Cl)c2Cl)ncc1C(=O)Nc1cccc2ccccc12` [Compound 36], for which the minimal effective concentration in test [8] and in test [5] was at most 50 µM throughout. For the same compound, the EC50 was below 10 µM in test [2], below 10 µM in test [3] and above 30 µM in test [4].
Consider `COc1cc(Sc2cc(Cl)cc(Cl)c2)ncc1C(=O)N[C@H]1CCc2ccccc21` [Compound 84], for which the minimal effective concentration in test [8] and in test [5] was at most 50 µM throughout. Also, the EC50 is below 10 µM in test [3], above 30 µM in test [4] and below 10 µM in test [7].
Take `CCSc1cc(Sc2cc(Cl)cc(Cl)c2)ncc1C(=O)N[C@H]1CCc2ccccc21` [Compound 73]: the minimal effective concentration in test [8] is at most 50 µM. Besides, the EC50 in test [6] is below 50 µM; in test [4], above 30 µM.
Regarding `CN(C)c1cc(Sc2cccc(Cl)c2Cl)ncc1C(=O)N[C@@H]1CCOc2ccccc21` [Compound 39], in test [8], the minimal effective concentration is at most 50 µM. Moreover, the figures for the EC50 in test [2], in test [3] and in test [4] were below 10 µM, below 10 µM and above 30 µM, respectively.
`CCOc1cc(Sc2cccc(Cl)c2Cl)ncc1C(=O)N[C@H]1CCc2ccccc21` [Compound 72]: in test [1], the minimal effective concentration was at most 50 µM. Also, the EC50 in test [6] is below 50 µM; in test [2], below 10 µM; in test [3], below 10 µM; in test [4], above 30 µM; in test [7] it was below 10 µM.
As for `CN(C)c1cc(Sc2cc(Cl)cc(Cl)c2)ncc1C(=O)N[C@@H]1CCOc2ccccc21` [Compound 18], in test [1], the minimal effective concentration was at most 50 µM. Also, the EC50 in test [6] is below 50 µM; in test [2], below 10 µM; in test [4] it was above 30 µM.
`CN(C)c1cc(Oc2cccc(Cl)c2Cl)ncc1C(=O)N[C@H]1CCc2ccccc21` [Compound 35]: the EC50 was below 50 µM in test [6], above 30 µM in test [4] and below 1 µM in test [7].
Turning to `CCOc1cc(Oc2cc(Cl)cc(Cl)c2)ncc1C(=O)N[C@H]1CCc2ccccc21` [Compound 90], the minimal effective concentration in test [1] and in test [8] was at most 50 µM throughout. In addition, the EC50 in test [3] was below 10 µM; in test [4] it was above 30 µM.
For the compound `CN(C)c1cc([S+]([O-])c2cc(Cl)cc(Cl)c2)ncc1C(=O)N[C@H]1CCOc2ccccc21` (stereo partly drawn) [Compound 103], the minimal effective concentration in test [1], in test [8] and in test [5] was at most 50 µM in each case. Further, the EC50 is below 10 µM in test [2], above 30 µM in test [4] and below 10 µM in test [7].
As to `O=C(N[C@@H]1CCOc2ccccc21)c1cnc(Oc2cc(Cl)cc(Cl)c2)cc1N1CCOCC1` [Compound 24], the minimal effective concentration in test [8] and in test [5] was at most 50 µM each time. Moreover, the values for the EC50 in test [2] and in test [4] were below 10 µM and above 30 µM, respectively.
On to `CN(C)c1cc(Oc2cccc(Cl)c2Cl)ncc1C(=O)N[C@H]1CCCc2ccccc21` [Compound 34], for which the EC50 in test [6] was below 50 µM; in test [4], above 30 µM; in test [7] it was below 1 µM.
Regarding `COc1cc(Sc2cccc(Cl)c2Cl)ncc1C(=O)N[C@H]1CCc2ccccc21` [Compound 67], the minimal effective concentration in test [1] and in test [5] was at most 50 µM throughout. Besides, the EC50 in test [3] was below 10 µM; in test [4], above 30 µM; in test [7] it was below 10 µM.
`CCOc1cc(Sc2cc(Cl)cc(Cl)c2)ncc1C(=O)N[C@H]1CCc2ccccc21` [Compound 97]: the figures for the EC50 in test [3] and in test [4] were below 10 µM and above 30 µM, respectively.
Consider `CSc1cc(Sc2cc(Cl)cc(Cl)c2)ncc1C(=O)N[C@@H]1CCOc2ccccc21` [Compound 55], for which the EC50 in test [6] is below 50 µM; in test [4], above 30 µM.
Regarding `CSc1cc(Sc2cccc(Cl)c2Cl)ncc1C(=O)N[C@H]1CCOc2ccccc21` [Compound 52], the minimal effective concentration in test [1] and in test [8] was at most 50 µM in each case. In addition, the EC50 in test [6] was below 50 µM; in test [4] it was above 30 µM; in test [7], below 10 µM.
For `COc1cc(Oc2cccc(Cl)c2Cl)ncc1C(=O)N[C@H]1CCc2ccccc21` [Compound 94], the EC50 is below 10 µM in test [2], below 10 µM in test [3] and above 30 µM in test [4].
On to `CSc1cc(Oc2cccc(Cl)c2Cl)ncc1C(=O)N[C@H]1CCOc2ccccc21` [Compound 57], for which the minimal effective concentration in test [1] was at most 50 µM. Also, the values for the EC50 in test [3] and in test [4] were below 10 µM and above 30 µM, respectively.
Consider `O=C(N[C@H]1CCCc2ccccc21)c1cnc(Sc2cccc(Cl)c2Cl)cc1N1CCOCC1` [Compound 21], for which the values for the EC50 in test [6], in test [4] and in test [7] were below 50 µM, above 30 µM and below 1 µM, respectively.
For `CN(C)c1cc(Oc2cccc(Cl)c2Cl)ncc1C(=O)Nc1csc2ccccc12` [Compound 37], the minimal effective concentration in test [1] and in test [5] was at most 50 µM each time. The EC50 in test [3] was below 10 µM; in test [4], above 30 µM.
Turning to `O=C(Nc1csc2ccccc12)c1cnc(Oc2cccc(Cl)c2Cl)cc1N1CCOCC1` [Compound 46], the EC50 is below 10 µM in test [2], below 10 µM in test [3] and above 30 µM in test [4].
